In PubChem BioAssay AID504507 (The Scripps Research Institute Molecular Screening Center, 2011):

Biological target: sn-1-specific diacylglycerol lipase ABHD11 (Mus musculus) (UniProt Q8K4F5)
Assay: ABHD11 inhibition in proteome, IC50 – biochemical, gel-based fluorescent ABPP, mouse, set 2, selectivity assay for LYPLA1 inhibitor project, late-stage follow-up (AID 504507)
Settings: fluorescent probe labeling

Chain of sn-1-specific diacylglycerol lipase ABHD11 (Mus musculus) (Q8K4F5 whole entry, looked up): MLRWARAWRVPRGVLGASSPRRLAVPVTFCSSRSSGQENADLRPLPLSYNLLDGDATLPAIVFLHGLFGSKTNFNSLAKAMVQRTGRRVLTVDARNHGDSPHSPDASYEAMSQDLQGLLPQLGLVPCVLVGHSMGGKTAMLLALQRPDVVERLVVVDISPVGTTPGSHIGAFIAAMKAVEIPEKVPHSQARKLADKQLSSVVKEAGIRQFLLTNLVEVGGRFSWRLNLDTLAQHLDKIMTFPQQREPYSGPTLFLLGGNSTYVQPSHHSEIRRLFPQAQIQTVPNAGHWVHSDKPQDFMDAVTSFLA

SMILES | IC50
COCC1CCCCN1C(=O)n1ncc(C(O)(c2ccccc2)c2ccccc2)n1 (configuration not stated) | 1 nM
CCC1CCCCN1C(=O)n1ncc(C(O)(c2ccccc2)c2ccccc2)n1 (configuration not stated) | 15 nM
